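Compound exposure: 48 hours, 5 concentrations, 96-well plates. The concentration for 50% growth inhibition is given as GI50. TGI: concentration producing complete growth inhibition.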
Legend:
Assay in all cases: NCI-60 cell line screen, 48 h
ACHN renal = system: ACHN renal
MDA-MB-435 = system: MDA-MB-435
OVCAR-8 ovarian = system: OVCAR-8 ovarian
OVCAR-4 ovarian = system: OVCAR-4 ovarian
A498 renal = system: A498 renal
SK-MEL-28 melanoma = system: SK-MEL-28 melanoma
NCI-H226 lung = system: NCI-H226 lung
MALME-3M melanoma = system: MALME-3M melanoma
MCF7 breast = system: MCF7 breast
UO-31 renal = system: UO-31 renal

Row | SMILES | GI50 (ACHN renal) [µM] | TGI (ACHN renal) [µM] | GI50 (MDA-MB-435) [µM] | TGI (MDA-MB-435) [µM] | GI50 (OVCAR-8 ovarian) [µM] | TGI (OVCAR-8 ovarian) [µM] | GI50 (OVCAR-4 ovarian) [µM] | TGI (OVCAR-4 ovarian) [µM] | GI50 (A498 renal) [µM] | TGI (A498 renal) [µM] | GI50 (SK-MEL-28 melanoma) [µM] | TGI (SK-MEL-28 melanoma) [µM] | GI50 (NCI-H226 lung) [µM] | TGI (NCI-H226 lung) [µM] | GI50 (MALME-3M melanoma) [µM] | TGI (MALME-3M melanoma) [µM] | GI50 (MCF7 breast) [µM] | TGI (MCF7 breast) [µM] | GI50 (UO-31 renal) [µM] | TGI (UO-31 renal) [µM]
1 | C=C(C)C(=O)O[C@H]1CC(=C)[C@@H]2C[C@H](O)[C@](O)(CCl)[C@@H]2[C@H]2OC(=O)C(=C)[C@@H]21 | 1.82 | 3.31 | 1.99 | 3.77 | 3.24 | 12.8 | 2.08 | 4.01 | 12.8 | 26.7 | 2.02 | 3.9 | 19.6 | 46.2 | 1.86 | 3.6 | 1.6 | 4.04 | 2.73 | 9.27
2 | COc1ccc(-c2c[nH]c(C(=O)O)c2-c2cc(OC)c(OC)c(OC)c2)cc1 | 9.74 | > 100 | 1.6 | 4.19 | 5.44 | > 100 | 88.8 | > 100 | 1.56 | 6.67 | > 100 | > 100 | 4.59 | > 100 | 4.37 | > 100 | 3.89 | > 100 | 5.02 | > 100
3 | FC(F)(F)c1ccc(Nc2nc(-c3c(C(F)(F)F)nc4ccccn34)cs2)cc1 | 0.061 | 6.83 | 0.0161 | 0.0473 | 0.18 | 7.74 | 1.22 | 15.6 | 0.0268 | 0.193 | 1.05 | 16.9 | 0.358 | 4.49 | 0.064 | 4.63 | 0.0341 | 5.43 | 0.289 | 6.89
4 | Cc1c(C(N)=O)sc2c1C(=O)N(Cc1ccccc1)C1=NN=C(c3ccc(Cl)cc3)CN12 | 3.02 | 11.6 | 4.9 | 26.1 | 2.97 | 15.2 | 2.81 | 15.8 | 2.88 | 12.7 | 5.67 | 18.5 | 2.49 | 11.8 | 3.29 | 16.4 | 3.59 | 14.9 | 2.24 | 15.3
5 | CN(C)CCN1C(=O)c2ccccc2N(C)c2ccccc21 | > 100 | > 100 | > 100 | > 100 | > 100 | > 100 | > 100 | > 100 | > 100 | > 100 | > 100 | > 100 | > 100 | > 100 | > 100 | > 100 | > 100 | > 100 | > 100 | > 100
6 | COc1ccc(C2=CC(c3ccc4c(c3)OCO4)c3c(c4ccccc4oc3=O)O2)cc1OC (stereo not given) | – | > 100 | – | 9.25 | – | > 100 | – | > 100 | – | > 100 | – | > 100 | – | 6.72 | – | > 100 | – | > 100 | – | > 100
7 | CC(C)(C)OC(=O)N1CCN(CCn2cc(C(F)(F)F)c3c(Cl)ncnc32)CC1 | 16.9 | 39.3 | 1.84 | 3.65 | 2.06 | 3.76 | 13.2 | 26.7 | 18.2 | 32.7 | 1.74 | 3.25 | 20 | 43.3 | 13.3 | 27.7 | 12.3 | 32.1 | 11.6 | 24.4
8 | CCN(CC)CCCCNc1c2ccccc2[n+](C)c2c1[nH]c1ccccc12 | 2.27 | > 47.3 | 0.6 | 2.16 | 0.786 | 19.8 | 0.345 | 2.57 | 0.613 | 2.39 | 0.201 | 0.539 | 0.202 | 1.18 | 0.217 | 0.671 | 0.256 | 3.63 | 3.13 | > 50.6
9 | CN(O)c1nc(N(C)O)nc(N2CCOCC2)n1 | 1.1 | > 100 | 6.6 | > 100 | 3.85 | > 100 | 2.02 | > 100 | 14.9 | > 100 | 7.08 | > 100 | 7.64 | > 100 | 12.3 | > 100 | 3.95 | > 100 | 2.41 | > 100
10 | O=C1c2ccccc2C(O)(O)C1(O)C1(O)C(=O)c2ccccc2C1(O)O (stereo not given) | – | 47.9 | – | 32.8 | – | > 100 | – | > 100 | – | > 100 | – | > 100 | – | > 100 | – | 54.3 | – | 30.5 | – | 48.7
